This is an account of results in patent US20160030364A1, “Therapeutic Compositions and Uses Thereof” (MANUKA HEALTH NEW ZEALAND LIMITED, priority 2013, published 2016).

The subject of this experiment is human colon cancer cell line (HCT-116). The experiment is described as follows: MTT anti-proliferative assay, HCT-116 (Examples 3-12). Format: cell-based. On the procedure: 5-phenylpenta-2,4-dienoic acid was assessed for its ability to modulate the viability and proliferation of human colorectal adenocarcinoma cells (DLD-1); human colon cancer cell line (HCT-116); human gastric carcinoma cell line (NCI-N87); and human oesophageal squamous cell carcinoma cell line (KYSE-30) as assessed by the MTT assay. The positive control, 5-fluorouracil (5-FU) was included at three concentrations; in addition to an unsupplemented cell control as a negative control in the study. The 5-phenylpenta-2,4-dienoic acid was a genuine standard with chemical structure confirmed by NMR and MS.
The four human gastrointestinal carcinoma cell lines were revived from cryostorage and cultured in the presence of the test and reference samples. An MTT assay was then performed on the cultures to determine the effect of the samples on the cell viability and proliferation.
The test sample 5-phenylpenta-2,4-dienoic acid, and all other test samples in Examples 4-12 (except tectochrysln) were Initially dissolved in pure ethanol to a concentration of around 13.35 mg/ml. Tectochrysin was initially dissolved in triethylene glycol mono-methyl ether to the same concentration. Working solutions were then prepared from the stock solutions by dilution to 15% ethanol/Hanks Balanced Salt Solution (ETOH)/HBSS to a concentration of 2 mg/mL solids. In the assay the final concentration of the samples was 200 μg/ml with a final EtOH concentration of 1.5%. Final concentrations of test compounds and propolis prepared as above are as noted in Example 3.
• 1. Human colorectal adenocarcinoma cells (ATCC CCI-221, DLD-1)(ATCC, Bethesda, Md., USA) • 2. Human gastric carcinoma cells (ATCC CRL-5822, NCI-N87)(ATCC, Bethesda, Md., USA) • 3. Human oesophageal squamous cell carcinoma (ECACC, KYSE-30)(Sigma Aldrich, Auckland, NZ) • 4. Human colon carcinoma cells (ECACC HCT-116)(Sigma Aldrich, Auckland, NZ) • 5. Penicillin-streptomycin solution: 10000 units/ml penicillin, 10 mg/ml streptomycin in 0.9% NaCl (Sigma Cat #P-0781). Stored at −20° C. • 6. For DLD-1 cells: DMEM culture medium (Invitrogen Cat #12100-046). Stored at 4° C. • 7. For NCI-N87 cells: RPMI-1640 medium modified to contain 2 mM L-glutamine, 10 mM HEPES, 1 mM sodium pyruvate, 4500 mg/L glucose, and 1500 mg/L sodium bicarbonate (Sigma R6504). Stored at 4° C. • 8. For KYSE-410 cells: RPMI-1640 medium modified to contain 2 mM L-glutamine (Sigma R6504). Stored at 4° C. • 9. For HCT-116 cells: McCoy's 5A medium modified to contain 2 mM L-glutamine (Sigma M48792). Stored at 4° C. • 10. Trypsin-EDTA solution: 0.25% Trypsin/EDTA, Invitrogen Cat#15400054 (×10 in stock). • 11. Phosphate buffered saline (PBS) (Prepared by TBL). • 12. Hanks Balanced Salt Solution (HBSS). (GIBCO Cat No. 14185-052). Stored at 4° C. • 13. Foetal Bovine Serum (GIBCO Cat #10091-148). Stored at −20° C. • 14. MTT Reagent: 100 mg/vial, (SIGMA Cat. No. M-2128) dissolved in PBS at 10 mg/ml and stored at −20° C. 5 mg/ml MTT solution will be prepared in PBS and stored at 4° C. as working solution. • 15. MTT lysis buffer: 10% sodium dodecyl sulphate (SDS)/45% Dimethyl Formamide (20 g SDS will be dissolved in 100 ml of double-distilled water (DDW), and 90 ml of Dimethyl Formamide will be added to the SDS solution). The pH will be adjusted to 4.7 by glacial acetic acid, and DDW added up to a final volume of 200 ml. • 16. 5-Fluorouracil (5-FU), (Sigma Cat. No. F-6627). Three working solutions will be prepared at 19.5 μg/ml. 6.5 μg/ml and 1.95 μg/ml dissolved in 15% Ethanol/HBSS. Final concentrations will be 1.95 μg/ml (15 μM), 0.65 μg/ml (5 μM) and 0.195 μg/ml (1.5 μM).
The medium for the propagation of the each of the cells lines is given above. Each medium was prepared following the ATCC/ECACC instructions and supplemented with penicillin-streptomycin solution (10 ml per litre). FBS (at 10%) was added just before use.
• 1. […]
A general note: Tetrazolium dyes change colour on reduction, which living cells bring about.

[1] abbreviates: Homo sapiens, HCT-116, 48 h, 200 μg/ml.

By inhibition is commonly meant the share of the control response that was lost under treatment. High values mean a response far below the control, low ones a response near the control. Consider `O=c1[nH]cc(F)c(=O)[nH]1` [Sample 5-FU, 5-fluorouracil, reference compound], for which the inhibition at 0.195 µg/mL (Homo sapiens, HCT-116, 48 h, 0.195 μg/ml) is 33.9%. This compound also gave an inhibition at 0.65 µg/mL (Homo sapiens, HCT-116, 48 h, 0.65 μg/ml) of 54%. Moreover, 1.95 µg/mL produced 57.3% inhibition (Homo sapiens, HCT-116, 48 h, 1.95 μg/ml).
Regarding `O=C(O)/C=C/c1ccc(O)cc1` [p-coumaric acid, para-coumaric acid, reference compound], for the setting “200 μg/ml, 48 hours”, the “% stim.” value is 2.6% and the “Mean OD (570 nm)” value came out at 0.5216. Moreover, testing at 200 µg/mL under setting [1] gave an inhibition of 0%.
`O=C1C[C@@H](c2ccccc2)Oc2cc(O)cc(O)c21` [Pinocembrin, reference compound]: under “200 μg/ml, 48 hours”, the “% stim.” value came to 0% and the “Mean OD (570 nm)” value amounted to 0.0045. This compound also came in with an inhibition at 200 µg/mL under setting [1] of 99.1%.
Broadly, the % inhibition is the share of the control response that was lost under treatment. Read a low % inhibition as little suppression. In the case of `COc1cc(O)c2c(=O)cc(-c3ccccc3)oc2c1` [Tectochrysin, tectochrysin], the “% inhibition” value (200 μg/ml, 48 hours) was found to be 90.1%.
